Converted amounts (≈) assume the structure as drawn. Where a name gives a salt, the structure may show the parent alone. Read-outs that look alike come from different tables or passages of the source. Residues, ends and D or L forms follow the SMILES beside them.
How the values were obtained:
S. aureus 8325-4 [1] = assay: microbe, parasite or virus in culture; assay type: cell-based, Staphylococcus aureus
Description: (§1) S. aureus strains 8325-4 ([35]) and USA300 ([36]) were used as indicated for the individual experiments. Bacterial cultures were grown in cation-adjusted Mueller-Hinton broth (MHB-II) at the indicated temperature.
(§2) MICs of all tested compounds were determined according to protocols using broth microdilution methodology ([46]), with minor modifications. S. aureus was grown in 10 ml MHB-II overnight at 37°C with shaking and then diluted 1:100 in fresh MHB-II and grown to an OD600 of 0.2 to 0.4. Cultures were then diluted 1:10 and grown to an OD600 of 0.2 to 0.4. These steps were performed to ensure balanced exponentially growing cultures as explained above. Finally, cultures were diluted to 1 × 10^6 CFU ml^−1 and further diluted 1:1 in microtiter plates in MHB-II with drug, leading to a final inoculum of 5 × 10^5 CFU ml^−1. MICs were determined in triplicate, and if more than one value was found, the highest was set as the MIC to keep the calculations conservative.

Drosophila melanogaster [2] = assay: Survival of uninfected control flies injected with VEH and drug; assay type: in vivo
Description: Injection assays were performed as previously described ([33]) by using a Nanoject-II microinjecter, but with minor modifications in the preparation of bacterial inoculums to obtain balanced cultures, as explained above. Flies were reared on standard Bloomington formulation at 25°C under a 12-h–12-h light-dark cycle and constant humidity. Adult Oregon R male flies (4 to 7 days old) were used for all injection experiments. Initial experiments with strain 8325-4 were performed in duplicate, with groups of 25 to 30 animals in each experiment. For USA300, experiments were performed in triplicate, except for the nisin experiment, which was done only in duplicate. The inoculum was prepared by resuspending cells in 10 mM MgSO4 vehicle (VEH) to an OD600 of 0.06 and was kept on ice, giving an inoculum dose of 100 to 450 CFU (8325-4) or 200 to 700 CFU (USA300) in the flies after injection of 18.4 nl. Bacterial and VEH injections were administered in the soft tissue surrounding the front legs, and drug treatment was administered in the lower thorax at 3 h postinfection. After injection of bacteria, flies were kept at 29°C and monitored for 48 to 96 h to determine mortality. Drug delivery was performed at the concentrations indicated for individual experiments. Flies which died within 3 h postinjection were considered to have died from handling and were disregarded. It is important that when drug concentrations were calculated, we performed a rough approximation of the fluid content of a fly. Fly fluid content was measured by drying out 10 groups of 50 flies each and comparing dry weight to wet weight. […] For simplicity and because we assumed that the compounds would not be distributed to all fluids, we used 0.5 μl fluid as our measure for calculating drug concentrations in the flies. Further, we assumed a rapid distribution of the compound in the open circulatory system of Drosophila and a slow clearance of the compounds by Malpighian tubules. Therefore, drug concentrations are given as the highest concentrations obtained, in multiples of the MIC.
Plotting of data was performed using GraphPad Prism 5. All in vivo survival plots were created using Kaplan-Meier analysis of pooled data for repetitive experiments. Statistical analysis was carried out with the log rank (Mantel-Cox) test for comparison of survival curves. Experiments with P values of <0.05 were considered to be significant and are stated in Results. Statistical analysis was performed on the counts of CFU per fly for the different treatment groups by using one-way analysis of variance (ANOVA) (Kruskal-Wallis test) with Dunn's multiple-comparison test for comparison of individual groups. Relevant statistical results are stated in Results.

Drosophila melanogaster [3] = assay: Adverse behavioral response (paralysis) after injection; assay type: in vivo; details: flies injected with high concentrations (data not shown); uncoordinated movements, inability to walk or fly
Description: (§3) Injection assays were performed as previously described ([33]) by using a Nanoject-II microinjecter, but with minor modifications in the preparation of bacterial inoculums to obtain balanced cultures, as explained above. Flies were reared on standard Bloomington formulation at 25°C under a 12-h–12-h light-dark cycle and constant humidity. Adult Oregon R male flies (4 to 7 days old) were used for all injection experiments. Initial experiments with strain 8325-4 were performed in duplicate, with groups of 25 to 30 animals in each experiment. For USA300, experiments were performed in triplicate, except for the nisin experiment, which was done only in duplicate. The inoculum was prepared by resuspending cells in 10 mM MgSO4 vehicle (VEH) to an OD600 of 0.06 and was kept on ice, giving an inoculum dose of 100 to 450 CFU (8325-4) or 200 to 700 CFU (USA300) in the flies after injection of 18.4 nl. […] After injection of bacteria, flies were kept at 29°C and monitored for 48 to 96 h to determine mortality. […] It is important that when drug concentrations were calculated, we performed a rough approximation of the fluid content of a fly. Fly fluid content was measured by drying out 10 groups of 50 flies each and comparing dry weight to wet weight. […]

S. aureus 8325-4 [4] = assay: Drosophila injection assay, survival of infected flies; assay type: in vivo, Drosophila melanogaster; details: >1,000× MIC, injection 3 h postinfection, 70-h period
Description: as §3

S. aureus USA300 (MRSA) = assay: MIC testing, broth microdilution; assay type: cell-based; details: Staphylococcus aureus
Description: as §1, §2

MRSA USA300 = assay: Drosophila injection assay, survival of infected flies; assay type: in vivo, Drosophila melanogaster; details: 10× MIC, 3 h postinfection, 96-h period
Description: as §3

S. aureus USA300 = assay: Bacterial titers (CFU per fly) after treatment; assay type: in vivo, Drosophila melanogaster; details: USA300-infected flies, treatment 3 h postinfection
Description: The growth rates of S. aureus strains were examined at 37°C in vitro to determine the growth period required to obtain balanced cultures, here defined as cultures grown exponentially for no fewer than 6 generations. Prior to injection of bacteria into the in vivo fly model, the inoculums were prepared as balanced cultures grown at 37°C. Since flies used for in vivo infections were kept at 29°C, the bacterial in vitro generation time was also determined at this temperature. In vitro growth rates were defined for growth in MHB-II by measurements of the optical density at 600 nm (OD600) at 10-min intervals. Furthermore, we determined the in vivo generation time based on CFU per animal by counting the CFU at various time points by homogenizing flies infected with bacteria and plating the homogenates on mannitol salt agar (MSA). This was performed in triplicate experiments; 3 individual flies were crushed in phosphate-buffered saline (PBS), and 10× dilution series were prepared, from which 10 μl each was spot plated on MSA in triplicate. The mean value for each experiment was determined as the number of CFU per fly and plotted. […] It should also be noted that drug treatment was performed at 3 h postinfection and that the number of CFU per fly for this time point was determined prior to treatment. […]

[5] = 8325-4, read-out: MIC (μM) 8325-4
[6] = at the concentrations tested, not given
[7] = broth microdilution, MHB-II, final inoculum 5 × 10^5 CFU ml^−1, triplicate, highest value set as MIC
[8] = calculated from MIC in μg ml^−1 with the mol wt of the table, read-out: MIC (μM) 8325-4

Row | Compound | MIC (μg ml^−1) 8325-4 (S. aureus 8325-4 [1]; 8325-4) [µg/mL] | MIC (S. aureus 8325-4 [1]; [5]) [µM] | Effect on survival of control animals (Drosophila melanogaster [2]; [6]) | MIC (μg ml^−1) 8325-4 (S. aureus 8325-4 [1]; [7]) [µg/mL] | MIC (S. aureus 8325-4 [1]; [8]) [µM] | Adverse behavioral response that may indicate neurotoxicity (Drosophila melanogaster [3]) | other results
1 | N=C(N)NCCC[C@H](NC(=O)[C@H](CCCNC(=N)N)NC(=O)[C@H](Cc1c[nH]c2ccccc12)NC(=O)[C@H](Cc1c[nH]c2ccccc12)NC(=O)[C@H](CCCCN)NC(=O)[C@H](Cc1c[nH]c2ccccc12)NC(=O)[C@H](Cc1c[nH]c2ccccc12)NC(=O)[C@H](CCCNC(=N)N)NC(=O)[C@@H](N)CCCCN)C(N)=O [HHC-36] (H-KRWWKWWRR-NH2) | 8 (≈ 5.38 µM) | 5.38 | no obvious detrimental effects on survival | – | – | – | –
2 | CC(C)C[C@H](NC(=O)[C@H](Cc1c[nH]c2ccccc12)NC(=O)[C@H](CCCNC(=N)N)NC(=O)[C@H](Cc1c[nH]c2ccccc12)NC(=O)[C@H](Cc1c[nH]c2ccccc12)NC(=O)[C@H](CCCCN)NC(=O)[C@H](CCCCN)NC(=O)[C@H](Cc1c[nH]c2ccccc12)NC(=O)[C@@H](N)CCCNC(=N)N)C(N)=O [GN-4] (H-RWKKWWRWL-NH2) | – | – | – | 4 (≈ 2.77 µM) | 2.77 | partially paralyzed for up to 10 h postinjection | Effect on survival of control animals (Drosophila melanogaster [2]; 10× MIC in fly, compared with VEH-injected flies): no detrimental effects on survival of flies
3 | CC1(C)S[C@@H]2[C@H](NC(=O)[C@H](N)c3ccccc3)C(=O)N2[C@H]1C(=O)O [Ampicillin, Ampicillin sodium salt, reference compound] | – | – | – | – | – | – | MIC (S. aureus 8325-4 [1]; Staphylococcus aureus, 83254, broth microdilution, MHB-II, final inoculum 5 × 10^5 CFU ml^−1, triplicate, highest value set as MIC, read-out: MIC (μg ml^−1) 8325-4): 0.01 µg/mL; MIC (S. aureus 8325-4 [1]; Staphylococcus aureus, 83254, calculated from MIC in μg ml^−1 with the mol wt of the table, read-out: MIC (μM) 8325-4): 2.86 µM; Effect on survival of 8325-4-infected flies (S. aureus 8325-4 [4]): efficiently promoted survival; Effect on survival of control animals (Drosophila melanogaster [2]; >1,000× MIC, 70-h period): no lethal effects on control animals
4 | CC[C@H](C)[C@H](NC(=O)[C@H](Cc1c[nH]c2ccccc12)NC(=O)[C@H](CCCNC(=N)N)NC(=O)[C@H](Cc1c[nH]c2ccccc12)NC(=O)[C@H](Cc1c[nH]c2ccccc12)NC(=O)[C@H](CCCNC(=N)N)NC(=O)[C@H](CCCCN)NC(=O)[C@H](Cc1c[nH]c2ccccc12)NC(=O)[C@@H](N)CCCNC(=N)N)C(N)=O [GN-2] (H-RWKRWWRWI-NH2) | – | – | – | 8 (≈ 5.44 µM) | 5.43 | partially paralyzed for up to 10 h postinjection | –
5 | CN[C@H](CC(C)C)C(=O)N[C@H]1C(=O)N[C@@H](CC(N)=O)C(=O)N[C@H]2C(=O)N[C@H]3C(=O)N[C@H](C(=O)N[C@H](C(=O)O)c4cc(O)cc(O)c4-c4cc3ccc4O)[C@H](O)c3ccc(c(Cl)c3)Oc3cc2cc(c3O[C@@H]2O[C@H](CO)[C@@H](O)[C@H](O)[C@H]2O[C@H]2C[C@](C)(N)[C@H](O)[C@H](C)O2)Oc2ccc(cc2Cl)[C@H]1O [Vancomycin, vancomycin hydrochloride] | – | – | no adverse effect on survival of control animals | – | – | – | MIC (S. aureus USA300 (MRSA); read-out: MIC (μM) USA300): 1.38 µM; MIC (S. aureus USA300 (MRSA); read-out: MIC (μg ml^−1) USA300): 2 µg/mL; Survival of USA300-infected animals compared with NAI-107 at 100× MIC (MRSA USA300): equivalent; Bacterial load compared to that with nisin treatment after 24 h (S. aureus USA300): significantly reduced the bacterial load; Proliferation of bacteria inside the animals (S. aureus USA300; CFU per fly at 0, 3, 12, 24 h on MSA): clearly disrupted the proliferation of bacteria
6 | CC(C)C[C@H](NC(=O)[C@H](Cc1c[nH]c2ccccc12)NC(=O)[C@H](Cc1c[nH]c2ccccc12)NC(=O)[C@H](CCCCN)NC(=O)[C@H](Cc1c[nH]c2ccccc12)NC(=O)[C@H](CCCNC(=N)N)NC(=O)[C@H](CCCNC(=N)N)NC(=O)[C@H](Cc1c[nH]c2ccccc12)NC(=O)[C@@H](N)CCCNC(=N)N)C(N)=O [HHC-9] (H-RWRRWKWWL-NH2) | 4 (≈ 2.72 µM) | 2.71 | no obvious detrimental effects on survival | – | – | – | –

From paper PMC4997821, “The Lantibiotic NAI-107 Efficiently Rescues Drosophila melanogaster from Infection with Methicillin-Resistant Staphylococcus aureus USA300” (Antimicrobial Agents and Chemotherapy, 2016)
